According to publication PMC8346996, “Antiradical Properties of N-Oxide Surfactants—Two in One” (International Journal of Molecular Sciences, 2021):
Values after ≈ are worked out from the molar mass of the structure shown. Where two headings read alike, the source gives them in different places. Marks after values point to notes of the source that are not given here.

How the values were obtained:
[1] = parameters: method as in PMID 23098238; settings: cited from earlier work
[2] = Radical scavenging monitored by EPR spectroscopy, DPPH•; settings: after 60 min of reaction; C/CMC = 100
Description: (§1) We began with an attempt to determine if the N-oxide surfactants can participate in the radical scavenging process when micelles are well-formed. Thus, the reaction mixtures containing a surfactant at C/CMC = 100, which is a typical concentration found in formulations, and GO• or DPPH• at 2 mM were prepared along with the control samples and monitored over time (solutions of DPPH• and GO• without surfactants).
(§2) The scavenging capacity of the surfactants was judged quantitatively by measuring the percentage of remaining GO• and DPPH• after a fixed reaction time. The relative concentration of GO• and DPPH• was calculated from Equation (1):(1) remaining radical%=It/I0×100% where I0 and It correspond to the EPR signal integral intensity of a radical in the absence and presence of the N-oxide surfactants after a fixed time, respectively.
(§3) The antiradical properties were studied by EPR using a Bruker ELEXYS E500 spectrometer equipped with an NMR gaussmeter and frequency counter. A microwave power of 10 mW, a modulation frequency of 100 kHz, a modulation amplitude of 1 G, a time constant of 82 ms, and a conversion time of 164 ms were adopted. The antiradical properties were evaluated against two model radicals: 2,2-diphenyl-1-picrylhydrazyl (DPPH•) and galvinoxyl (GO•). […]

[3] = MTT cell viability assay, HGFs; assay type: cell-based, human; settings: human, primary human gingival fibroblasts (HGFs), evaluated for CMC
Description: (§4) HaCaT (immortalized human keratinocytes from histologically normal skin) cell line was obtained from the CLS Cell Lines Service GmbH (Eppelheim, Germany). HGFs (human gingival fibroblasts) derive from primary cell culture. The cells were isolated according to the procedure described by Saczko et al. and patented by Saczko et al.. Cells were grown in plastic cell culture flasks in Dulbecco’s Modified Eagle’s Medium, supplemented with fetal bovine serum (FBS, Lonza, Morrisville, NC, USA), with 100 IU/mL penicillin, 50 mg streptomycin, and 125 μg amphotericin B (Sigma). The cells were maintained in a humidified atmosphere at 37 °C and 5% CO2. The cells were regularly maintained by systematic passaging. For experimental purposes, the cells were removed by trypsinization (0.25% Trypsin-EDTA, Sigma).
(§5) MTT (Sigma) test was used to determine the viability of HaCaT and HGFs cells. The MTT assay was used to test mitochondrial metabolic functioning. Cells were seeded on flat bottom 96-well tissue culture plates at a density of 10^4 cells/well and allowed to grow in a CO2 incubator at 37 °C overnight. In the case of these studies, the culture medium was removed, surfactant solutions were added, and the cells were exposed for 24 and 48 h to compounds at doses ranging from 50 to 2000 μg/mL. After incubation, MTT assay was applied according to the manufacturer protocol. The absorbance was measured at 570 nm using a multiwell plate reader (EnSpire Multimode Reader, Perkin Elmer). Each experiment was performed in a few independent repetitions. Mean values and standard deviations of all results were calculated. The final results were expressed as the percentage of mitochondrial function relative to untreated control cells.

[4] = system: primary fibroblasts (HGFs); assay: MTT cell viability assay, HGFs; assay type: cell-based, human; settings: Homo sapiens, Fibroblast, MTT
Description: as §4, §5

[5] = system: normal human keratinocytes (HaCaT); assay: MTT cell viability assay, HaCaT; assay type: cell-based; settings: Homo sapiens, HaCaT, MTT
Description: as §4, §5

[6] = MTT cell viability assay, HaCaT; assay type: cell-based, human; settings: human, HaCaT cells (immortalized human keratinocytes), evaluated for CMC
Description: as §4, §5

[7] = parameters: method as in PMID 23098238; settings: cited from earlier work; remark: listed apart in the source
[8] = DPPH• scavenging kinetics by UV-vis, pseudo-first-order conditions
Description: After confirming that the absorption maximum at 517 nm of DPPH• is outside the surfactant’s absorption range, the rate of the DPPH•-scavenging reaction of the N-oxides was measured by monitoring the decrease in absorbance of this maximum. To ensure that the decay of DPPH• obeyed pseudo-first-order kinetics, the concentration of surfactants was at least a 54-fold excess of the DPPH• concentration. As explained in SI, the calculated pseudo-first-order rate constants, kobs, increased linearly with the concentration of Cn(DAPANO)2 and CnPDA (shown in SI). The second-order rate constants k2 for the reaction between the N-oxides and DPPH• were determined from the slopes of the linear plots of kobs vs. the concentration of the surfactants and are given in Figure 6.
The measurements were done under deaerated conditions at 298 K in ethanol solutions (2 mL in a 10 mm quartz cuvette) containing DPPH^• (C = 2.2 × 10^−4 M) and a surfactant at each of five different concentrations, namely C1 = 0.12 M, C2 = 0.09 M, C3 = 0.06 M, C4 = 0.03 M, and C5 = 0.012 M. UV−vis spectral changes associated with the undergoing reaction were monitored at 516 nm, using a Varian Cary 50Conc UV−visible Spectrophotometer. The following equations of the calibration curve were used to calculate DPPH^• concentrations in the reaction system: Abs = 4.0189 × C[mM] + 0.00813 (R^2 = 0.9998). The rate of DPPH^• scavenging reaction was determined using pseudo-first-order kinetics (the concentration of CnPDA or Cn(DAPANO)2 was maintained at more than 54-fold excess of the radical concentration); further details are given as Supporting Information.

[9] = Radical scavenging monitored by EPR spectroscopy, GO•; settings: after 60 min of reaction; C/CMC = 100
Description: as §1, §2, §3

## CCCCCCCCCCCC(=O)N(CCC[N+](C)(C)[O-])CCC[N+](C)(C)[O-] [C12(DAPANO)2]
[1]
  RH DLS: 2.04 ^a nm
[2]
  reduced the number of DPPH• by: 86%
[3]; 24 h, read-out: Viability 24 h HGF’s
  viability at 24 h: 17.1%
[3]; 48 h, read-out: Viability 48 h HGF’s
  viability at 48 h: 10.8%
[4]; 24 h incubation, read-out: IC50 HGFs 24 h
  IC50: 27.9 µg/mL (≈ 69.5 µM)
[4]; 48 h incubation, read-out: IC50 HGFs 48 h
  IC50: 1.2 µg/mL (≈ 2.99 µM)
[5]; 24 h incubation, read-out: IC50 HaCaT 24 h
  IC50: 95 µg/mL (≈ 237 µM)
[5]; 48 h incubation, read-out: IC50 HaCaT 48 h
  IC50: 94 µg/mL (≈ 234 µM)
[6]; 24 h
  viability at 24 h: 9.2%
[6]; 48 h
  viability at 48 h: 16.4%
[7]
  CMC: 5.5·10^−3 a M
[8]; ethanol, 298 K, deaerated, DPPH• 2.2 × 10^−4 M, surfactant 0.012-0.12 M
  second-order rate constant k2 for the reaction with DPPH•: 0.00108 M⁻¹ s⁻¹
[8]; reaction with DPPH•
  k2 higher in comparison with the CnPDA homolog: 19%
[9]
  reduced the number of GO• by: 88%
